Measured values taken from the NIST ThermoML archive (doi:10.1016/j.jct.2011.10.001).

Legend:
[1] = Molar enthalpy of transition or fusion; details: Crystal; Adiabatic calorimetry
[2] = for molar entropy: 101.33 kPa, Vacuum adiabatic calorimetry; for vapor or sublimation pressure: Ebulliometric method (Recirculating still)

CCCC(=O)OC [methyl butanoate]
Details	Molar enthalpy of transition or fusion [kcal/mol]
[1]	2.72

[2]
Details	Triple point temperature [K]	molar entropy [J/K/mol]	vapor or sublimation pressure [kPa]
5 K, Crystal	–	0.119	–
10 K, Crystal	–	0.949	–
15 K, Crystal	–	2.987	–
20 K, Crystal	–	6.126	–
25 K, Crystal	–	10.07	–
30 K, Crystal	–	14.55	–
35 K, Crystal	–	19.38	–
40 K, Crystal	–	24.39	–
45 K, Crystal	–	29.43	–
50 K, Crystal	–	34.51	–
55 K, Crystal	–	39.59	–
60 K, Crystal	–	44.66	–
65 K, Crystal	–	49.71	–
70 K, Crystal	–	54.67	–
75 K, Crystal	–	59.5	–
80 K, Crystal	–	64.19	–
85 K, Crystal	–	68.76	–
90 K, Crystal	–	73.24	–
95 K, Crystal	–	77.63	–
100 K, Crystal	–	81.94	–
110 K, Crystal	–	90.3	–
120 K, Crystal	–	98.36	–
130 K, Crystal	–	106.18	–
140 K, Crystal	–	113.66	–
150 K, Crystal	–	120.98	–
160 K, Crystal	–	128.13	–
170 K, Crystal	–	135.11	–
180 K, Crystal	–	141.93	–
190 K, Crystal	–	148.58	–
190.09 K, Crystal	–	148.66	–
190.09 K, Liquid	–	208.44	–
200 K, Liquid	–	217.84	–
210 K, Liquid	–	226.9	–
220 K, Liquid	–	235.55	–
230 K, Liquid	–	243.86	–
240 K, Liquid	–	251.84	–
250 K, Liquid	–	259.58	–
260 K, Liquid	–	267.06	–
270 K, Liquid	–	274.38	–
280 K, Liquid	–	281.36	–
290 K, Liquid	–	288.26	–
298.15 K, Liquid	–	293.75	–
300 K, Liquid	–	295	–
310 K, Liquid	–	301.48	–
316.24 K, Liquid	–	–	10.8
320 K, Liquid	–	307.88	–
321.02 K, Liquid	–	–	13.43
326.17 K, Liquid	–	–	16.83
330 K, Liquid	–	314.12	–
331.33 K, Liquid	–	–	20.88
335.84 K, Liquid	–	–	25.07
340 K, Liquid	–	320.27	–
341.17 K, Liquid	–	–	30.91
346.14 K, Liquid	–	–	37.26
350 K, Liquid	–	326.34	–
351.81 K, Liquid	–	–	45.83
357.57 K, Liquid	–	–	56.12
360 K, Liquid	–	332.33	–
363.05 K, Liquid	–	–	67.49
368.86 K, Liquid	–	–	81.57
370 K, Liquid	–	338.15	–
373.81 K, Liquid	–	–	95.31
374.54 K, Liquid	–	–	97.44
375.25 K, Liquid	–	–	99.6
Crystal, fractional melting	190.1	–	–
